PMC11249646, “Small-Molecule Disruptors of the Interaction between Calcium- and Integrin-Binding Protein 1 and Integrin αIIbβ3 as Novel Antiplatelet Agents” (ACS Pharmacology & Translational Science, 2024)
Read-outs that look alike come from different tables or passages of the source.

Experiments:
Type in all cases: binding
[1] = molecular target: T1, CIB1 and αIIb interaction (GST-CIB1 : F-αIIb peptide) (Homo sapiens, UniProt Q99828); test: FP assay, 384-well format (screen); design: 384-well SCREEN Efficacy (%): concentration or dose not given beside the values; settings: for 384-well SCREEN Efficacy (%) / 384-well SCREEN Confirm? / IC50: F-αIIb peptide; for 384-well SCREEN Confirm?: YES/NO; for IC50: read-out: 384-well SCREEN IC50
T1 construct: made in house; host or cells: BL-21 plus RIL cells (E. coli)
T1 sequence (Q99828 1-191): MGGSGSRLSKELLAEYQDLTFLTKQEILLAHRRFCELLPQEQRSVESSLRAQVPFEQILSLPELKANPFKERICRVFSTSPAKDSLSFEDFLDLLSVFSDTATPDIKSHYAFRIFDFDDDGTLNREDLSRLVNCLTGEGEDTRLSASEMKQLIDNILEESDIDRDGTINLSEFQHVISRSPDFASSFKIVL

[2] = molecular target: T2, GST-CIB1 : F-scrambled peptide (Homo sapiens, UniProt Q99828); test: FP scrambled-peptide counter screen, 384-well format; settings: F-scrambled peptide; for IC50: read-out: 384-well COUNTERSCREEN IC50; for 384-well COUNTERSCREEN Confirm?: *: Curve in opposite direction
T2 construct: made in house; host or cells: BL-21 plus RIL cells (E. coli)
T2 sequence (Q99828 1-191): T1 sequence (Q99828 1-191)

[3] = molecular target: T3, CIB1 and αIIb interaction (CIB1-GST : F-αIIb peptide) (Homo sapiens, UniProt Q99828); test: FP assay, 1536-well qHTS format (primary and confirmatory screen); settings: for CONFIRMATORY SCREEN Confirm?: YES/NO call; for CONFIRMATORY SCREEN Curve Class: qHTS curve class; for CONFIRMATORY SCREEN Curve Class / Curve Class: negative sign = inhibitory curve
T3 construct: made in house; host or cells: BL-21 plus RIL cells (E. coli)
T3 sequence (Q99828 1-191): T1 sequence (Q99828 1-191)

[4] = molecular target: T2, GST-CIB1 : F-scrambled peptide; test: FP scrambled-peptide counter screen, 1536-well format; settings: for COUNTERSCREEN Confirm?: YES/NO call; for COUNTERSCREEN Curve Class: qHTS curve class; for IC50: read-out: COUNTERSCREEN IC50
[5] = confirmatory screen, negative = inhibition
[6] = qHTS FP screen hits, Table S2, negative = inhibition
[7] = qHTS FP screen hits, Table S2, one class per curve where COUNT > 1
[8] = scrambled-peptide counterscreen
[9] = confirmatory screen, read-out: CONFIRMATORY SCREEN IC50
[10] = qHTS primary screen hits, Table S2, negative = inhibition
[11] = qHTS primary screen hits, Table S2, several classes where COUNT > 1
[12] = qHTS primary screen hits, Table S2, read-out: IC50
[13] = qHTS primary screen hits, Table S2
[14] = qHTS FP screen hits, Table S2, read-out: IC50

IC50 [3, 9] [µM]	Structure (SMILES)	384-well SCREEN Efficacy (%) [1] [%]	384-well SCREEN Confirm? [1]	IC50 [1] [µM]	384-well COUNTERSCREEN Efficacy (%) [2] [%]	IC50 [2] [µM]	CONFIRMATORY SCREEN Confirm? ([3]; confirmatory screen)	CONFIRMATORY SCREEN Curve Class ([3]; confirmatory screen)	CONFIRMATORY SCREEN Efficacy (%) [3, 5] [%]	COUNTERSCREEN Efficacy (%) [4, 8] [%]	COUNTERSCREEN Confirm? [4, 8]	COUNTERSCREEN Curve Class [4, 8]	384-well COUNTERSCREEN Confirm? [2]	Efficacy (%) [3, 10] [%]	Curve Class [3, 11]	IC50 [3, 12] [µM]	other results
	COc1ccccc1S(=O)(=O)Nc1cnccc1C(=O)Nc1nc(-c2ccccc2)cs1.O=C(O)C(F)(F)F [NCGC00344905-01]	37	YES	7.1	44	10	YES	-2.2	-79	-15	YES	4					Efficacy (%) [3, 6]: -43%; Curve Class [3, 7]: -2.2
	Cc1ccccc1S(=O)(=O)Nc1cnccc1C(=O)Nc1nc(-c2ccccc2)cs1.O=C(O)C(F)(F)F [NCGC00344941-01]	35	YES	17.8	20	> 120	YES	-1.2	-59	10	YES	4	YES	-51	-2.2	44.7	
	O=C(Nc1nc(-c2ccccc2)cs1)c1ccncc1NS(=O)(=O)c1ccccc1Cl.O=C(O)C(F)(F)F [NCGC00344943-01]	32	YES	15.8	31	> 120	YES	-1.1	-98	25	YES	4	YES				
	Cc1cc(S(=O)(=O)Nc2cnccc2C(=O)Nc2nc(-c3ccccc3)cs2)c(C)o1.O=C(O)C(F)(F)F [NCGC00345029-01]	42	YES	20	16	> 120	YES	-1.1	-83	10	YES	4	YES				
28.2	Cc1cc(F)ccc1S(=O)(=O)Nc1cnccc1C(=O)Nc1nc(-c2ccccc2)cs1 [NCGC00345106-03]	46	YES	28.2	38	> 120	YES	-2.1	-123	28	YES	4	YES				Efficacy (%) [3, 6]: -51%; Curve Class [3, 7]: -2.2; IC50 [3, 14]: 50.1 µM
50.1	O=C(O)C1=NC(C(=O)O)CC(/C=C/N2c3cc(O)c(OC4OC(CO)C(O)C(O)C4O)cc3CC2C(=O)O)=C1 (stereo not drawn) [NCGC00346734-01]	43	YES	39.8	10	> 120	YES	-2.2	-66	-18	YES	4	YES	-25		24.1	Curve Class [3, 13]: -2.4
22.4	CC(=O)N1CCN(c2ccc(OCc3nn(C)c(C)c3-c3cccc4c(CCCOc5cccc6ccccc56)c(C(=O)O)n(Cc5cccnc5)c34)cc2)CC1 [NCGC00347174-02]	52	YES	28.2	15	> 120	YES	-2.2	-77	-33	YES	4	YES	-31	-2.4	34.1	
22.4	Cc1c(C)n(Cc2ccc(-c3ccccc3C(=O)O)cc2)c2ccc(C(=O)N[C@@H](C)c3ccc([N+](=O)[O-])cc3)cc12 [NCGC00347955-04]	56	YES	12.6	32	> 120	YES	-1.2	-52	95	YES	3	YES				IC50 [4, 8]: 89.1 µM
8.9	CCc1nnc(NS(=O)(=O)c2ccc(NC(=S)NC(=O)/C=C/c3ccc(F)cc3)cc2)s1 [NCGC00351476-01]	30	YES	4.5	-30	5	YES	-1.2	-36	57	YES	3					Efficacy (%) [3, 6]: -29%; Curve Class [3, 7]: -1.2; IC50 [3, 14]: 7.9 µM; IC50 [4, 8]: 70.8 µM

Structure (SMILES)	IC50 [3, 9] [µM]	384-well SCREEN Efficacy (%) [1] [%]	384-well SCREEN Confirm? [1]	IC50 [1] [µM]	384-well COUNTERSCREEN Efficacy (%) [2] [%]	IC50 [2] [µM]	CONFIRMATORY SCREEN Confirm? ([3]; confirmatory screen)	CONFIRMATORY SCREEN Curve Class ([3]; confirmatory screen)	CONFIRMATORY SCREEN Efficacy (%) [3, 5] [%]	COUNTERSCREEN Efficacy (%) [4, 8] [%]	COUNTERSCREEN Confirm? [4, 8]	COUNTERSCREEN Curve Class [4, 8]	384-well COUNTERSCREEN Confirm? [2]	Efficacy (%) [3, 10] [%]	Curve Class [3, 11]	IC50 [3, 12] [µM]	other results
CCc1ccc(S(=O)(=O)Nc2cnccc2C(=O)Nc2nc(-c3ccccc3)cs2)cc1.O=C(O)C(F)(F)F [NCGC00344909-01]	22.4	40	YES	35.5	44	> 120	YES	-2.2	-82	14	YES	4	YES	-57	-2.2	79.4	
O=C(Nc1nc(-c2ccccc2)cs1)c1ccncc1NS(=O)(=O)c1cccc2cccnc12.O=C(O)C(F)(F)F [NCGC00344938-01]	35.5	16	YES	6.3	18	> 120	YES	-2.2	-93	-33	YES	-2.4	YES	-56	-2.2	39.8	IC50 [4, 8]: 70.8 µM
O=C(Nc1nc(-c2ccccc2)cs1)c1ccncc1NS(=O)(=O)c1ccc2ccccc2c1.O=C(O)C(F)(F)F [NCGC00345031-01]	20	47	YES		81	28.2	YES	-1.4			YES	3	YES*	-53		39.8	CONFIRMATORY SCREEN Efficacy (%) [3]: -84%; Curve Class [3, 13]: -2.2; COUNTERSCREEN Efficacy (%) [4]: 0%
NS(=O)(=O)c1ccc(Cc2c(-c3cccc(-c4ccccc4F)c3)nn(-c3nc(C(=O)O)cs3)c2O)cc1.O=C(O)C(F)(F)F [NCGC00356464-01]	39.8	57	YES	22.4	34	10	YES	-1.2	-74	-32	YES	4	Inconclusive	-63	-2.2	79.4	Confirm and Selective? ([1]; selective toward αIIb: negative curve class and/or IC50 ratio of >3-fold and/or >2-fold efficacy vs scrambled peptide): Inconclusive
